{"source": "patent US20080299189A1", "about": "“CONTROLLED RELEASE DOPAMINE AGONIST COMPOSITIONS” (DRUGTECH CORPORATION, priority 2007, published 2008)", "origin": "cited, not measured here", "key": {"[1]": {"details": "compared to placebo"}}, "data": [{"smiles": "CCCN[C@H]1CCc2nc(N)sc2C1", "note": "[pramipexole, (S)-2-amino-4,5,6,7-tetrahydro-6-(propylamino)benzothiazole]", "values": [{"measurement": "half-life", "setting": "in vivo", "result": 8.5, "unit": "h"}, {"measurement": "Cmax", "setting": "printed as a time", "result": "1 to 3", "unit": "h"}, {"measurement": "relative risk of hallucination", "setting": "[1]", "result": 5.2}, {"measurement": "relative risk of hypotension", "setting": "[1]", "result": 1.65}, {"measurement": "relative risk of somnolence", "setting": "[1]", "result": 2.01}]}]}
